From patent publication US12187773B2, “Modified GIP peptide analogues” (Antag Therapeutics ApS, priority 2018, dated 2025)
Where two headings read alike, the source gives them in different places. *1 amine or outer side, *2 acyl side, *3 side chain or, on linkers, in order; H or OH if unused. Where a SMILES comes first, the peptide text is derived from it. Side-chain parts run from the residue outwards. [ ]: non-standard residue; d: D form. The star is where a group is joined. C18 diacid = O=C(O)CCCCCCCCCCCCCCCCC(=O)*; C16 diacid = O=C(O)CCCCCCCCCCCCCCC(=O)*; γGlu = O=C(O)[C@H](CCC(=O)[*:2])N[*:1]; pGlu = O=C1CC[C@@H](C(=O)O)N1; AEEA = NCCOCCOCC(=O)O

Key:
[1] = target: T1, human GIP receptor (Homo sapiens, UniProt P48546); assay: cAMP accumulation, antagonism (DiscoveRx HitHunter cAMP XS assay); type: cell-based; parameters: host or cells: COS-7 (transient, calcium phosphate; pCMV-Script vector); details: for cAMP antagonism, % inhib / GIPR, Antagonism, % inhib: COS-7 cells; for cAMP antagonism, % inhib: % inhibition of Emax; for GIPR, Antagonism, % inhib: Table 3A/3B
T1 sequence (P48546 22-466): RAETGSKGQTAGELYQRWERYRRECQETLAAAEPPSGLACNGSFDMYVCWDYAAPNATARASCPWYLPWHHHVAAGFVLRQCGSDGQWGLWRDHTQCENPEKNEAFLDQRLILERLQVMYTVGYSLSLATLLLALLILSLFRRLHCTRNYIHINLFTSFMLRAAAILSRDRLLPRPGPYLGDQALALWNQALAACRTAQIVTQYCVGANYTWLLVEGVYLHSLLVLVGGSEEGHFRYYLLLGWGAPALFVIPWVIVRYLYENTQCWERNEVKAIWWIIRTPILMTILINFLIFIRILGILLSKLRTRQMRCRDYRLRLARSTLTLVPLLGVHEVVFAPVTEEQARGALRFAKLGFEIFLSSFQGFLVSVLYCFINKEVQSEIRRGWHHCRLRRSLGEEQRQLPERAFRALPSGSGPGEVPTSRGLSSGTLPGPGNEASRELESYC
Summary of the method: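 cAMP accumulation measured by HitHunter cAMP XS in COS-7 cells transiently expressing human GIP receptor, after 30 min in HBS with 1 mM IBMX at 37 °C. Antagonists preincubated 10 min before GIP giving 50-80% of maximum, then 20 min more; agonist mode used 30 min ligand exposure.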

[2] = Elimination half-life (T1/2) estimated in Göttingen minipigs; type: in vivo
Experimental: 2-3 Göttingen minipigs were subcutaneously administered one of the GIP analogues of the present invention (1-10 nmol/kg, total volume 2-6 mL) and blood samples were collected before and up to 432 hours post subcutaneous administration.) from a central venous catheter. The catheter was flushed with saline and heparin between samples. Blood was collected into cold EDTA tubes, centrifuged and plasma was kept at −20° C. pending analyses.
Concentrations of the acylated GIP(3-30)NH2 or GIP(5-30)NH2 analogues in blood samples from Göttingen minipigs were analyzed by RIA. Analogues' immunoreactivity was determined using antiserum Ab95234, Ab95235, Ab95236, a polyclonal in-house antibody raised in rabbits specific for either the mid region of GIP(1-30)NH2 or amidated C-terminus of GIP(3-30)NH2.
In addition to the hormone analysis, blood concentrations of AT374, 380, 382-385, 392-393 were determined by LC/MS performed by Red Glead Discovery AB, Lund, Sweden. The plasma samples were precipitated by addition of 3 parts ethanol followed by thorough mixing. After centrifugation and dilution of the supernatant, the samples were analyzed by LC-MS/MS and compared with a 9-point calibration curve. The calibration curves were prepared in naïve plasma matrix from Göttingen minipigs.

[3] = target: T2, GLP1 receptor (GLP1R) (Homo sapiens, UniProt P43220); assay: cAMP assay - selectivity, antagonism at GLP1 receptor; type: cell-based; details: Table 3A; COS-7 cells; agonist GLP1 at 50-80% of maximal cAMP
T2 construct: expressed in transfected cells; host or cells: COS-7 (transient)
T2 sequence (P43220 24-463, species assumed): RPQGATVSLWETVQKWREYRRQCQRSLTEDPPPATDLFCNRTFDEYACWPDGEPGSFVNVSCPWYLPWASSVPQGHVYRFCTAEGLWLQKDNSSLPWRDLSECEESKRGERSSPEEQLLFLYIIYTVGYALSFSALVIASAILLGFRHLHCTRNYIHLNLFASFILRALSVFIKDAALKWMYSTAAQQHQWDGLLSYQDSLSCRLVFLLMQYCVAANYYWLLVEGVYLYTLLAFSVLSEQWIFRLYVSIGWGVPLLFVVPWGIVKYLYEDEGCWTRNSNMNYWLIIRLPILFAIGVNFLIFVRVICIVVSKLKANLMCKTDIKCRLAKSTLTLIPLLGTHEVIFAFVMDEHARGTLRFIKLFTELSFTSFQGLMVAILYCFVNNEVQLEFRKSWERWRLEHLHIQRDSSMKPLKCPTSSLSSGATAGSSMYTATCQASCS
Experimental: (§1) Transient transfected COS-7 cells expressing the either of the GLP1 receptor (GLP1R), GLP2 receptor (GLP2R), glucagon receptor (GcgR) or secretin receptor (SCTR) were seeded in white 96-well plates with a density of 3.5*10^4/well. The day after, the cells were washed twice with Hepes buffered saline (HBS) buffer and incubated with HBS and 1 mM 3-isobutyl-1-methylxanthine (IBMX) for 30 min at 37° C. To test for agonistic properties, ligands were added and incubated for 30 min at 37° C. In order to test for antagonistic properties, the cells were preincubated with the antagonists for 10 min prior to the addition the natural agonist for the expressed receptor (GLP1 for GLP1R expressing cells, GLP2 for GLP2R expressing cells, glucagon for the GcgR and secretin for the SCTR) and subsequent incubated for 20 additional min. […] The HitHunter™ cAMP XS assay (DiscoveRx) was carried out according to the manufacturer's instructions.

[4] = target: T1, human GIP receptor; assay: cAMP agonism (CisBio cAMP Dynamic 2 HTRF assay); type: cell-based; details: HEK293, read-out: cAMP agonism, % Efficacy, Table 1C, HEK-293 cells
Experimental: To test for agonistic properties at the GIP receptor, compounds were diluted and added to cells as described above and incubated for 30 min at 37° C. The resulting increase in intracellular cAMP was determined using the CisBio cAMP Dynamic 2 HTRF Assay Kit as described above.

[5] = target: T3, glucagon receptor (GcgR) (Homo sapiens, UniProt P47871); assay: cAMP assay - selectivity, antagonism at glucagon receptor; type: cell-based; details: Table 3A; COS-7 cells; agonist glucagon at 50-80% of maximal cAMP
T3 construct: expressed in transfected cells; host or cells: COS-7 (transient)
T3 sequence (P47871 26-477, species assumed): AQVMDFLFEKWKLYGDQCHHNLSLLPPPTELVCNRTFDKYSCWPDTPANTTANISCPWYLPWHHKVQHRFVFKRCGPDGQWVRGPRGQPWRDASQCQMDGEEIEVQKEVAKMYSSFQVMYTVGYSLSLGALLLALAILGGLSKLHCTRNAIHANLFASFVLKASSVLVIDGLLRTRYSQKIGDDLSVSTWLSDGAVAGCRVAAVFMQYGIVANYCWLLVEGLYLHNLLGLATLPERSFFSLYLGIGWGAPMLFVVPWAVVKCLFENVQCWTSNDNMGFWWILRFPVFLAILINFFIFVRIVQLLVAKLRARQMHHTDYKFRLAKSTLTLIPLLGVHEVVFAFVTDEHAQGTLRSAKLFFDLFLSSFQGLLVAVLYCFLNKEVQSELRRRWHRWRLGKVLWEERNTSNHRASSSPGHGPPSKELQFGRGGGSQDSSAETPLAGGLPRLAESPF
Experimental: as §1

[6] = cAMP antagonism, nM (IC50), Table 1B, DiscoveRx, transiently transfected COS-7 cells
[7] = Göttingen, minipig, plasma, subcutaneous, Example 1, read-out: T1/2 (converted)
[8] = sc, Table 1B, species not given, unit h, LC/MS in Göttingen minipig plasma for these IDs, subcutaneous 1-10 nmol/kg, read-out: T½ (converted)
[9] = IC50-value (GIPR antagonism), Examples 1 and 2, values of Tables 1B and 2

SMILES	cAMP antagonism, % inhib ([1]; Table 1B, DiscoveRx) [%]	GIPR, Antagonism, % inhib ([1]; DiscoveRx) [%]	IC50 [1, 6] [nM]	half-life [2, 7] [h]	half-life [2, 8] [h]	GLP-1R, Antagonism, nM [3]	Emax [4] [%]	Glucagon R, Antagonism, nM [5]	IC50 [1, 9] [nM]
CC[C@H](C)[C@H](NC(=O)[C@H](CO)NC(=O)[C@H](Cc1ccc(O)cc1)NC(=O)[C@H](CC(=O)O)NC(=O)[C@H](CO)NC(=O)[C@@H](NC(=O)[C@H](Cc1ccccc1)NC(=O)[C@@H](NC(=O)CNC(=O)[C@@H]1CCC(=O)N1)[C@@H](C)O)[C@@H](C)CC)C(=O)N[C@@H](C)C(=O)N[C@@H](CCSC)C(=O)N[C@@H](CC(=O)O)C(=O)N[C@@H](CCCNC(=N)N)C(=O)N[C@H](C(=O)N[C@@H](CCCCNC(=O)COCCOCCNC(=O)COCCOCCNC(=O)COCCOCCNC(=O)CC[C@H](NC(=O)CCCCCCCCCCCCCCCCC(=O)O)C(=O)O)C(=O)N[C@@H](CCC(N)=O)C(=O)N[C@@H](CCC(N)=O)C(=O)N[C@@H](CC(=O)O)C(=O)N[C@@H](Cc1ccccc1)C(=O)N[C@H](C(=O)N[C@@H](CC(N)=O)C(=O)N[C@@H](Cc1c[nH]c2ccccc12)C(=O)N[C@@H](CC(C)C)C(=O)N[C@@H](CC(C)C)C(=O)N[C@@H](C)C(=O)N[C@@H](CCC(N)=O)C(=O)N[C@@H](CCCNC(=N)N)C(N)=O)C(C)C)[C@@H](C)CC [AT382] ([pGlu]GTFISDYSIAMDRIK([AEEA-AEEA-AEEA-γGlu-C18 diacid])QQDFVNWLLAQR-NH2)	100	100.0	2	29	29	No antagonism	0	No antagonism	
CC[C@H](C)[C@H](NC(=O)[C@H](CO)NC(=O)[C@H](Cc1ccc(O)cc1)NC(=O)[C@H](CC(=O)O)NC(=O)[C@H](CO)NC(=O)[C@@H](NC(=O)[C@H](Cc1ccccc1)NC(=O)[C@@H](NC(=O)CNC(=O)[C@@H](N)CO)[C@@H](C)O)[C@@H](C)CC)C(=O)N[C@@H](C)C(=O)N[C@@H](CCSC)C(=O)N[C@@H](CC(=O)O)C(=O)N[C@@H](CCCNC(=N)N)C(=O)N[C@H](C(=O)N[C@@H](CCCCNC(=O)COCCOCCNC(=O)COCCOCCNC(=O)COCCOCCNC(=O)CC[C@H](NC(=O)CCCCCCCCCCCCCCC(=O)O)C(=O)O)C(=O)N[C@@H](CCC(N)=O)C(=O)N[C@@H](CCC(N)=O)C(=O)N[C@@H](CC(=O)O)C(=O)N[C@@H](Cc1ccccc1)C(=O)N[C@H](C(=O)N[C@@H](CC(N)=O)C(=O)N[C@@H](Cc1c[nH]c2ccccc12)C(=O)N[C@@H](CC(C)C)C(=O)N[C@@H](CC(C)C)C(=O)N[C@@H](C)C(=O)N[C@@H](CCC(N)=O)C(=O)N[C@@H](CCCNC(=N)N)C(N)=O)C(C)C)[C@@H](C)CC [AT383] (H-SGTFISDYSIAMDRIK([AEEA-AEEA-AEEA-γGlu-C16 diacid])QQDFVNWLLAQR-NH2; N-terminus assumed)	100	100.0	1		12	No antagonism	0	No antagonism	
CC[C@H](C)[C@H](NC(=O)[C@H](CO)NC(=O)[C@H](Cc1ccc(O)cc1)NC(=O)[C@H](CC(=O)O)NC(=O)[C@H](CO)NC(=O)[C@@H](NC(=O)[C@H](Cc1ccccc1)NC(=O)[C@@H](NC(=O)CNC(=O)[C@@H](N)CO)[C@@H](C)O)[C@@H](C)CC)C(=O)N[C@@H](C)C(=O)N[C@@H](CCSC)C(=O)N[C@@H](CC(=O)O)C(=O)N[C@@H](CCCNC(=N)N)C(=O)N[C@H](C(=O)N[C@@H](CCCCNC(=O)COCCOCCNC(=O)COCCOCCNC(=O)CC[C@H](NC(=O)CCCCCCCCCCCCCCCCC(=O)O)C(=O)O)C(=O)N[C@@H](CCC(N)=O)C(=O)N[C@@H](CCC(N)=O)C(=O)N[C@@H](CC(=O)O)C(=O)N[C@@H](Cc1ccccc1)C(=O)N[C@H](C(=O)N[C@@H](CC(N)=O)C(=O)N[C@@H](Cc1c[nH]c2ccccc12)C(=O)N[C@@H](CC(C)C)C(=O)N[C@@H](CC(C)C)C(=O)N[C@@H](C)C(=O)N[C@@H](CCC(N)=O)C(=O)N[C@@H](CCCNC(=N)N)C(N)=O)C(C)C)[C@@H](C)CC [AT384] (H-SGTFISDYSIAMDRIK([AEEA-AEEA-γGlu-C18 diacid])QQDFVNWLLAQR-NH2; N-terminus assumed)	100	100.0	8	36	36	No antagonism	0	No antagonism	8
CC[C@H](C)[C@H](NC(=O)[C@H](CO)NC(=O)[C@H](Cc1ccc(O)cc1)NC(=O)[C@H](CC(=O)O)NC(=O)[C@H](CO)NC(=O)[C@@H](NC(=O)[C@H](Cc1ccccc1)NC(=O)[C@@H](NC(=O)CNC(=O)[C@@H](N)CO)[C@@H](C)O)[C@@H](C)CC)C(=O)N[C@@H](C)C(=O)N[C@@H](CCSC)C(=O)N[C@@H](CC(=O)O)C(=O)N[C@@H](CCCNC(=N)N)C(=O)N[C@H](C(=O)N[C@@H](CCCCNC(=O)COCCOCCNC(=O)COCCOCCNC(=O)COCCOCCNC(=O)CC[C@H](NC(=O)CCCCCCCCCCCCCCCCC(=O)O)C(=O)O)C(=O)N[C@@H](CCC(N)=O)C(=O)N[C@@H](CCC(N)=O)C(=O)N[C@@H](CC(=O)O)C(=O)N[C@@H](Cc1ccccc1)C(=O)N[C@H](C(=O)N[C@@H](CC(N)=O)C(=O)N[C@@H](Cc1c[nH]c2ccccc12)C(=O)N[C@@H](CC(C)C)C(=O)N[C@@H](CC(C)C)C(=O)N[C@@H](C)C(=O)N[C@@H](CCC(N)=O)C(=O)N[C@@H](CCCNC(=N)N)C(N)=O)C(C)C)[C@@H](C)CC [AT385] (H-SGTFISDYSIAMDRIK([AEEA-AEEA-AEEA-γGlu-C18 diacid])QQDFVNWLLAQR-NH2; N-terminus assumed)	100	100.0	4	20	20	No antagonism	3	No antagonism	4
